These results are taken from patent US10874334B1, “Methods and systems for quantification of blood-brain barrier permeation of glycosylated peptides” (ARIZONA BOARD OF REGENTS ON BEHALF OF THE UNIVERSITY OF …, priority 2016, dated 2020).

Data set [1] in a line: Degradation study of enkephalins spiked into rodent serum (FIA-MS^n). The conditions noted are these: for stability (degradation) in serum with 5% acetic acid: rat serum + 5% acetic acid (HAc), 60-minute period before measurements (Ser+HAc+60 min); for stability (degradation) in serum: rat serum, peptides incubated in serum for 60 minutes prior to the study (Ser+60 min). On the procedure:
Ser refers to when Enkephalins were added to rat serum and degradation was allowed to proceed and the remaining enkephalin levels were measured at specific time points. […] Ser+HAc+60 min refers to when 5% acetic acid (HAc) was added to the serum, preserving enkephalins by inhibiting degradation during a 60 minute period before beginning measurements (Ser+HAc+60 min.). All error bars are SEM. Statistical significance is indicated by asterisks when p<0.05.
Degradation studies of enkephalins in biological fluids were performed by […]. […] Enkephalins were added to rat serum and degradation was allowed to proceed and the remaining enkephalin levels were measured at specific time points (Ser).

Data set [2] is described as follows: Degradation study of enkephalins spiked into cerebral spinal fluid (CSF) from rats. The conditions noted are these: for stability (degradation) in CSF with 5% HAc: CSF from rats + 5% HAc (+CSF+HAc), compared with isotonic aCSF.

Turning to methionine enkephalin [Met-Enkephalin], in data set [1], the “stability (degradation) in serum with 5% acetic acid” value is reported as “preserved enkephalins by inhibiting degradation” and the “stability (degradation) in serum” value is on record as “degradation was already complete”. Also, in data set [2], the “stability (degradation) in CSF with 5% HAc” value was “prevents the degradation”.
For the compound `CC(C)C[C@H](NC(=O)[C@H](Cc1ccccc1)NC(=O)CNC(=O)CNC(=O)[C@@H](N)Cc1ccc(O)cc1)C(=O)O` [Leu-Enkephalin, leucine enkephalin], in data set [1], the “stability (degradation) in serum with 5% acetic acid” value was “preserved enkephalins by inhibiting degradation” and the “stability (degradation) in serum” value was “degradation was already complete”. Besides, in data set [2] (CSF from rats (+CSF), single exponential decay fit), the “stability (degradation) in CSF” value is listed as “degradation occurs in CSF over 20 minutes”. Besides, in data set [2], the “stability (degradation) in CSF with 5% HAc” value is “prevents the degradation”.
